# Measurements from PubChem BioAssay (NCI).
#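 Growth conditions: 96-well plates. Treatment: test compound, 48 hours, 5 concentrations. Analysis: linear interpolation between bracketing concentrations; unreached endpoints set to highest concentration. The concentration for 50% growth inhibition is given as GI50. TGI marks complete inhibition of growth.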
# Columns and labels:
# Assay in all cases: NCI tumour cell line growth inhibition, 48 h
# 786-0 renal = test system: 786-0 renal
# COLO 205 colon = test system: COLO 205 colon
# SF-539 CNS = test system: SF-539 CNS
# HCC-2998 colon = test system: HCC-2998 colon
# OVCAR-8 ovarian = test system: OVCAR-8 ovarian
# RXF 393 renal = test system: RXF 393 renal
# HOP-92 NSCLC = test system: HOP-92 NSCLC
# SK-MEL-28 melanoma = test system: SK-MEL-28 melanoma
# HT29 colon = test system: HT29 colon
# A498 renal = test system: A498 renal
# EKVX NSCLC = test system: EKVX NSCLC
# CAKI-1 renal = test system: CAKI-1 renal
# MDA-MB-435 = test system: MDA-MB-435
# SW-620 colon = test system: SW-620 colon
# LOX IMVI melanoma = test system: LOX IMVI melanoma
# ACHN renal = test system: ACHN renal
# HS 578T breast = test system: HS 578T breast
# SF-268 CNS = test system: SF-268 CNS
# SK-MEL-5 melanoma = test system: SK-MEL-5 melanoma
# MOLT-4 leukemia = test system: MOLT-4 leukemia
# PC-3 prostate = test system: PC-3 prostate
# HOP-62 NSCLC = test system: HOP-62 NSCLC
# RPMI-8226 leukemia = test system: RPMI-8226 leukemia
# KM12 colon = test system: KM12 colon
# IGROV1 ovarian = test system: IGROV1 ovarian
# NCI-H23 lung = test system: NCI-H23 lung
# NCI/ADR-RES ovarian = test system: NCI/ADR-RES ovarian
# K-562 leukemia = test system: K-562 leukemia
# BT-549 breast = test system: BT-549 breast
# MALME-3M melanoma = test system: MALME-3M melanoma
# T-47D breast = test system: T-47D breast
# CCRF-CEM leukemia = test system: CCRF-CEM leukemia
# UACC-257 melanoma = test system: UACC-257 melanoma
# OVCAR-5 ovarian = test system: OVCAR-5 ovarian
# NCI-H522 lung = test system: NCI-H522 lung
# SNB-19 CNS = test system: SNB-19 CNS
# TK-10 renal = test system: TK-10 renal
# HL-60(TB) leukemia = test system: HL-60(TB) leukemia
# OVCAR-3 ovarian = test system: OVCAR-3 ovarian
# MCF7 breast = test system: MCF7 breast
# NCI-H460 lung = test system: NCI-H460 lung
# MDA-MB-231 breast = test system: MDA-MB-231 breast
# SNB-75 CNS = test system: SNB-75 CNS
# MDA-MB-468 breast = test system: MDA-MB-468 breast
# HCT-15 colon = test system: HCT-15 colon
# SK-MEL-2 melanoma = test system: SK-MEL-2 melanoma
# SN12C renal = test system: SN12C renal
# DU-145 prostate = test system: DU-145 prostate
# M14 melanoma = test system: M14 melanoma
# SR leukemia = test system: SR leukemia
# HCT-116 colon = test system: HCT-116 colon
# SF-295 CNS = test system: SF-295 CNS
# UACC-62 melanoma = test system: UACC-62 melanoma
# SK-OV-3 ovarian = test system: SK-OV-3 ovarian
# A549 NSCLC = test system: A549 NSCLC
# UO-31 renal = test system: UO-31 renal
# U251 CNS = test system: U251 CNS
# NCI-H226 lung = test system: NCI-H226 lung
structure (smiles),measurement,setting,value
O=C(CS(=O)(=O)c1oc(-c2ccc(Cl)cc2)nc1S(=O)(=O)c1ccccc1)N1CCCC1,GI50,786-0 renal,1.51 µM
same,TGI,786-0 renal,3.01 µM
same,GI50,COLO 205 colon,2.14 µM
same,TGI,COLO 205 colon,4.68 µM
same,GI50,SF-539 CNS,1.64 µM
same,TGI,SF-539 CNS,2.99 µM
same,GI50,HCC-2998 colon,14.5 µM
same,TGI,HCC-2998 colon,28.7 µM
same,GI50,OVCAR-8 ovarian,11.2 µM
same,TGI,OVCAR-8 ovarian,33.2 µM
same,GI50,RXF 393 renal,1.36 µM
same,TGI,RXF 393 renal,2.79 µM
same,GI50,HOP-92 NSCLC,2.38 µM
same,TGI,HOP-92 NSCLC,4.68 µM
same,GI50,SK-MEL-28 melanoma,3.58 µM
same,TGI,SK-MEL-28 melanoma,12.5 µM
same,GI50,HT29 colon,2.07 µM
same,TGI,HT29 colon,5.07 µM
same,GI50,A498 renal,14.2 µM
same,TGI,A498 renal,27.3 µM
same,GI50,EKVX NSCLC,2.03 µM
same,TGI,EKVX NSCLC,4.9 µM
same,GI50,CAKI-1 renal,1.41 µM
same,TGI,CAKI-1 renal,2.75 µM
same,GI50,MDA-MB-435,2.88 µM
same,TGI,MDA-MB-435,13.6 µM
same,GI50,SW-620 colon,1.06 µM
same,TGI,SW-620 colon,2.41 µM
same,GI50,LOX IMVI melanoma,1.49 µM
same,TGI,LOX IMVI melanoma,2.86 µM
same,GI50,ACHN renal,1.52 µM
same,TGI,ACHN renal,2.85 µM
same,GI50,HS 578T breast,7.21 µM
same,TGI,HS 578T breast,53.9 µM
same,GI50,SF-268 CNS,14.9 µM
same,TGI,SF-268 CNS,43.2 µM
same,GI50,SK-MEL-5 melanoma,14.3 µM
same,TGI,SK-MEL-5 melanoma,27.6 µM
same,GI50,MOLT-4 leukemia,2.38 µM
same,TGI,MOLT-4 leukemia,> 100 µM
same,GI50,PC-3 prostate,9.59 µM
same,TGI,PC-3 prostate,27.5 µM
same,GI50,HOP-62 NSCLC,17.8 µM
same,TGI,HOP-62 NSCLC,34 µM
same,GI50,RPMI-8226 leukemia,2.99 µM
same,TGI,RPMI-8226 leukemia,> 100 µM
same,GI50,KM12 colon,16.8 µM
same,TGI,KM12 colon,33 µM
same,GI50,IGROV1 ovarian,13.1 µM
same,TGI,IGROV1 ovarian,29.3 µM
same,GI50,NCI-H23 lung,11.4 µM
same,TGI,NCI-H23 lung,26.8 µM
same,GI50,NCI/ADR-RES ovarian,15.9 µM
same,TGI,NCI/ADR-RES ovarian,70.5 µM
same,GI50,K-562 leukemia,0.707 µM
same,TGI,K-562 leukemia,> 100 µM
same,GI50,BT-549 breast,1.88 µM
same,TGI,BT-549 breast,3.48 µM
same,GI50,MALME-3M melanoma,1.69 µM
same,TGI,MALME-3M melanoma,3.09 µM
same,GI50,T-47D breast,1.8 µM
same,TGI,T-47D breast,4.47 µM
same,GI50,CCRF-CEM leukemia,0.4 µM
same,TGI,CCRF-CEM leukemia,2.36 µM
same,GI50,UACC-257 melanoma,1.88 µM
same,TGI,UACC-257 melanoma,3.62 µM
same,GI50,OVCAR-5 ovarian,13.7 µM
same,TGI,OVCAR-5 ovarian,27.4 µM
same,GI50,NCI-H522 lung,1.11 µM
same,TGI,NCI-H522 lung,2.53 µM
same,GI50,SNB-19 CNS,16 µM
same,TGI,SNB-19 CNS,30.5 µM
same,GI50,TK-10 renal,1.75 µM
same,TGI,TK-10 renal,3.19 µM
same,GI50,HL-60(TB) leukemia,1.31 µM
same,TGI,HL-60(TB) leukemia,> 100 µM
same,GI50,OVCAR-3 ovarian,1.29 µM
same,TGI,OVCAR-3 ovarian,2.71 µM
same,GI50,MCF7 breast,1.47 µM
same,TGI,MCF7 breast,3.34 µM
same,GI50,NCI-H460 lung,12.3 µM
same,TGI,NCI-H460 lung,26.3 µM
same,GI50,MDA-MB-231 breast,1.71 µM
same,TGI,MDA-MB-231 breast,3.1 µM
same,GI50,SNB-75 CNS,10.1 µM
same,TGI,SNB-75 CNS,23 µM
same,GI50,MDA-MB-468 breast,1.08 µM
same,TGI,MDA-MB-468 breast,2.49 µM
same,GI50,HCT-15 colon,1.43 µM
same,TGI,HCT-15 colon,2.99 µM
same,GI50,SK-MEL-2 melanoma,15 µM
same,TGI,SK-MEL-2 melanoma,29 µM
same,GI50,SN12C renal,12 µM
same,TGI,SN12C renal,24.9 µM
same,GI50,DU-145 prostate,1.76 µM
same,TGI,DU-145 prostate,3.37 µM
same,GI50,M14 melanoma,1.88 µM
same,TGI,M14 melanoma,4.07 µM
same,GI50,SR leukemia,2.6 µM
same,TGI,SR leukemia,> 100 µM
same,GI50,HCT-116 colon,1.81 µM
same,TGI,HCT-116 colon,4.07 µM
same,GI50,SF-295 CNS,13.4 µM
same,TGI,SF-295 CNS,26.8 µM
same,GI50,UACC-62 melanoma,3.35 µM
same,TGI,UACC-62 melanoma,13.6 µM
same,GI50,SK-OV-3 ovarian,18 µM
same,TGI,SK-OV-3 ovarian,33 µM
same,GI50,A549 NSCLC,14.3 µM
same,TGI,A549 NSCLC,31.6 µM
same,GI50,UO-31 renal,1.54 µM
same,TGI,UO-31 renal,2.96 µM
same,GI50,U251 CNS,15.9 µM
same,TGI,U251 CNS,29.8 µM
same,GI50,NCI-H226 lung,15.1 µM
same,TGI,NCI-H226 lung,39 µM
